Measured values: patent publication US20240327709A1, “NON-LAMELLAR LIQUID CRYSTAL-FORMING COMPOSITION AND USE THEREOF” (FARNEX INCORPORATED, priority 2021, published 2024)

Tests used:
[1] = Gel formation test with water; format: physicochemical; conditions: amphiphilic compound mixed with water alone, no phospholipid
Description: (§1) The precursor formulations Nos. 1 to 23 were subjected to gel formation test. A portion (about 100 to 300 mg) of each precursor formulation was added to an excess amount (about 0.5 to 2 mL) of water for injection in a vial, and the whole was mixed at room temperature (25° C.) with a spatula and/or a vortex mixer.
The precursor formulations Nos. 26 to 31 were subjected to gel formation test in a similar manner to that in Example 2.
as §1, with “Nos. 36” for “Nos. 1”, “to 40” for “to 23”

[2] = SAXS liquid crystal structure analysis of gel compositions; format: physicochemical; conditions: amphiphilic compound mixed with water alone
From the text: The gel compositions formed from the precursor formulations Nos. 1 to 23 were each directly embedded in a pinhole slit and subjected to small-angle X-ray scattering diffractometry with a small-angle x-ray scattering (SAXS) apparatus (manufactured by Rigaku Corp., Nano-Viewer) to analyze the non-lamellar liquid crystal structure.
The obtained liquid crystal phases and scattering vector values q1 [nm^−1] of peaks located at the smallest angle are shown in Tables 1 and 2. […] There were some gel compositions having two types of different liquid crystal phases.

CCCCC/C=C\C/C=C\CCCCCCCC(=O)OCCC(C)O (stereo not drawn) [1,3-Butylene glycol monolinoleate]
gel composition formation [1]: failed to form a gel composition

CCCCC/C=C\C/C=C\CCCCCCCC(=O)OCCC(C)(C)O [3-methyl-1,3-butanediol monolinoleate]
gel composition formation [1]: failed to form a gel composition

CCCCCCCC/C=C\CCCCCCCC(=O)OCCOCCO [diethylene glycol monooleate, Diethylene glycol monooleate]
liquid crystal phase [2]: HII | q1 [2]: 1.35 nm⁻¹ | gel composition formation [1]: formed a gel composition

CCCCC/C=C\C/C=C\CCCCCCCC(=O)OC1COC2C(O)COC12 (stereo not drawn) [isosorbide monolinoleate]
gel composition formation [1]: failed to form a gel composition
